Experiments:
[1] = tested on: human ovarian cancer cells; assay: Selective cancer cell-killing in ovarian cancer patient samples, cancer cells; assay type: cell-based; details: 24 hours; Calcein-AM; FIG. 9B
Source text: Evaluating selective cancer cell-killing in ovarian cancer patient samples. Cancer and non-cancer cells were isolated from primary tumors, intraperitoneal (IP) fluid, omental adipose tissue (common metastatic site), and blood from 6 ovarian cancer patients. The following cells were isolated and tested: cancer cells (digested tumor with depletion of fibroblasts, CD45+ cells, and […] cells), non-cancer immune cells (digested omental cells with depletion of neutrophils or CD45+ cells from tumor tissue), peripheral blood mononuclear cells (PBMCs; B cells, T cells, monocytes, and NK cells), fibroblasts (isolated from tumor samples using fibroblast isolation kit), and IP cells (composed of >90% CD45+ immune cells, including B, T, myeloid, NK cells). Isolated cells were plated and exposed to A2M:MutF, doxorubicin (standard of care chemotherapy), or oxaliplatin (standard of care chemotherapy) for 24 hours. Cell viability was assessed by Calcein-AM.

[2] = Plasma Protection Assay (MutF activity on AAPV-AMC in plasma); assay type: biochemical; details: mouse plasma; MutF 400 nM; A2M:MutF 1:2; FIG. 3C
Method: Plasma Protection Assay. MutF (400 nM) was mixed with 200 nM A2M to reach a 1:2 molar ratio (A2M:MutF), followed by 30 minutes incubation at 37° C. in PBS. A plasma protection assay was performed in 384-black well-coated plate by adding 10 μL of sample with either 10 μL of PBS or 10 μL of mouse plasma samples in duplicates. 20 μL of the substrate AAPV-AMC at a concentration of 100 μM was added. Kinetics were measured on Varioskan LUX: 380 nm ex/460 nm (5 nm bandwidth), 37° C., top, 100 msec, 2 min for 16 reads. Vo was calculated as activity measurement.

[3] = biological target: T1, Human fibrinogen (Homo sapiens, UniProt P02671+P02675+P02679); assay: Fibrinogen cleavage assay; assay type: biochemical; details: 1 hr at 37° C.; Western Blot; FIG. 6B
T1 construct: purchased Sigma
T1 sequence (P02671 20-629 limits assumed): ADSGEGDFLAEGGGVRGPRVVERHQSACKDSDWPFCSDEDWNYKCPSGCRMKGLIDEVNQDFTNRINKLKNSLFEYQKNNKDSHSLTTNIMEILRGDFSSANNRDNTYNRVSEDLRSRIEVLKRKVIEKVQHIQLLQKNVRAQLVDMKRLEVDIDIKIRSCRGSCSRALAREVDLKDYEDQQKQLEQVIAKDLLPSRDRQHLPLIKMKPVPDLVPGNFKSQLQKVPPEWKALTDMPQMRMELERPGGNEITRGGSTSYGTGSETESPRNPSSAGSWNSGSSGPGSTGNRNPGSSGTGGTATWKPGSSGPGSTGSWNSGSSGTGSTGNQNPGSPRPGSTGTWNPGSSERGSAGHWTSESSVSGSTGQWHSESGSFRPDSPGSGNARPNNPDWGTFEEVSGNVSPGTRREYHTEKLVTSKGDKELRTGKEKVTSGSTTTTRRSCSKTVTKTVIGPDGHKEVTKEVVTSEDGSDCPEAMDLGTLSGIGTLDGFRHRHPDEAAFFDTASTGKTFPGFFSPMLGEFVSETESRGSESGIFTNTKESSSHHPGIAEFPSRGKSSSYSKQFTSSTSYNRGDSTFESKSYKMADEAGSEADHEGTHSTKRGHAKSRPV
T1 sequence (P02675 31-491): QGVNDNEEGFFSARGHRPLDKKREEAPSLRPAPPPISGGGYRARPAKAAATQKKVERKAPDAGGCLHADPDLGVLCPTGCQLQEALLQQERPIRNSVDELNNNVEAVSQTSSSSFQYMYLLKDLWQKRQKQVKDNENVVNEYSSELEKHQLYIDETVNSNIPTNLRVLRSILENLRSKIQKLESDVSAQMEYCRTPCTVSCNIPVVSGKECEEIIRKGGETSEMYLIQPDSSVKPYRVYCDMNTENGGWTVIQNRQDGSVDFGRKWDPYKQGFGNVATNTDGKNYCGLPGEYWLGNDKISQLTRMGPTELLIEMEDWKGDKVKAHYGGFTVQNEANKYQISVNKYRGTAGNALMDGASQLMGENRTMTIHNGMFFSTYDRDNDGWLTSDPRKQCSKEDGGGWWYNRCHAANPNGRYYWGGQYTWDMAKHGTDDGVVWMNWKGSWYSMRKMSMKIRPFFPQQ
T1 sequence (P02679 27-453): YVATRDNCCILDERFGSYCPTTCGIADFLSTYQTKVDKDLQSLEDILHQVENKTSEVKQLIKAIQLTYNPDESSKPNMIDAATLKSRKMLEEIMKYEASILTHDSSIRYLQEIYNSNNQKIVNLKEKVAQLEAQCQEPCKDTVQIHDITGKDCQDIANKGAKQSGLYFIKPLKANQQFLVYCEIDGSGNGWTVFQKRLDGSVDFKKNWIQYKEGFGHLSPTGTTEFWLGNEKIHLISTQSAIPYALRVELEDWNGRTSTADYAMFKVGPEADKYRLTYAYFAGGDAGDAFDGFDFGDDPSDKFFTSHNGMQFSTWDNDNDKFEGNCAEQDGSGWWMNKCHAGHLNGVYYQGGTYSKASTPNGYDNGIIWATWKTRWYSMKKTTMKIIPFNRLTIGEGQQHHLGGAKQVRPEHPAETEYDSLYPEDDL
Method: Fibrinogen cleavage assay. MutF was mixed with different concentrations of A2M to reach various molar ratios, followed by a 30-minute incubation at 37° C. in PBS. Human fibrinogen (Sigma) was incubated with pre-mixed A2M:MutF protein complexes at different molar ratios for 1 hr at 37° C. Samples containing 5 ug of fibrinogen were loaded on 4-15% gel and fibrinogen was detected by Western Blot with an anti-fibrinogen (cell signaling Technology). Gels were imaged by iBright 1500.

[4] = tested on: Elastin-F; assay: Elastin cleavage assay; assay type: biochemical; details: overnight at 37° C.; FIG. 6C
Method: Elastin cleavage assay. MutF was mixed with different concentrations of A2M to reach various molar ratios, followed by a 30-minute incubation at 37° C. in PBS. Elastin-F (1:100) was incubated with pre-mixed A2M:MutF protein complexes overnight at 37° C., and the degraded fluorescent signal was measured in the supernatant.

[5] = Coagulation Assay (PT, PTT, fibrinogen in plasma after IV injection); assay type: in vivo, Mice; details: mouse plasma 5 min after IV injection of 480 ug
Method: Coagulation Assay. Mice were injected with 200 μL of 480 ug of MutF or purified A2M:MutF protein complexes at a 1:2 molar ratio. Blood was collected in sodium citrate tubes and centrifuged at 1500×g for 15 minutes. 300 μl of plasma were frozen and shipped to IDEXX to be analyzed for Prothrombin time, Partial Thromboplastin time, and concentration of Fibrinogen.

Row | Molecule | Killing of cancer cells from chemo-naïve vs chemo-treated patients [1] | MutF activity in plasma [2] | Fibrinogen cleavage [3] | Elastin cleavage (fluorescent signal) [4] | Prothrombin time ([5]; FIG. 7A) | Partial Thromboplastin time ([5]; FIG. 7B) | Concentration of fibrinogen in plasma ([5]; FIG. 7C)
1 | COc1cccc2c1C(=O)c1c(O)c3c(c(O)c1C2=O)C[C@@](O)(C(=O)CO)C[C@@H]3O[C@H]1C[C@H](N)[C@H](O)[C@H](C)O1 [doxorubicin, reference compound] | reduced killing of cancer cells isolated from chemo-treated relative to chemo-naïve patients |  |  |  |  |  | 
2 | O=C1[O][Pt]2([NH][C@@H]3CCCC[C@H]3[NH]2)[O]C1=O [oxaliplatin, reference compound] | reduced killing of cancer cells isolated from chemo-treated relative to chemo-naïve patients |  |  |  |  |  | 
3 | MutF: porcine pancreatic elastase (PPE) protein 'Mutant F', Q211F, SEQ ID NO: 5 |  | plasma inhibits MutF activity | does cleave fibrinogen | does cleave elastin | increases PT and PTT times | increases PT and PTT times | causes reductions in fibrinogen levels

From patent US20260232818A1, “PHARMACEUTICAL COMPOSITIONS COMPRISING PROTEIN COMPLEXES” (Onchilles Pharma, Inc., priority 2023, published 2026)
